Measurements reported in BindingDB's records for patent US11518761 (Vyera Pharmaceuticals, 2022).

Target: T1, Calmodulin-domain protein kinase 1 (Toxoplasma gondii, UniProt Q9BJF5)
T1 sequence (Q9BJF5 whole entry): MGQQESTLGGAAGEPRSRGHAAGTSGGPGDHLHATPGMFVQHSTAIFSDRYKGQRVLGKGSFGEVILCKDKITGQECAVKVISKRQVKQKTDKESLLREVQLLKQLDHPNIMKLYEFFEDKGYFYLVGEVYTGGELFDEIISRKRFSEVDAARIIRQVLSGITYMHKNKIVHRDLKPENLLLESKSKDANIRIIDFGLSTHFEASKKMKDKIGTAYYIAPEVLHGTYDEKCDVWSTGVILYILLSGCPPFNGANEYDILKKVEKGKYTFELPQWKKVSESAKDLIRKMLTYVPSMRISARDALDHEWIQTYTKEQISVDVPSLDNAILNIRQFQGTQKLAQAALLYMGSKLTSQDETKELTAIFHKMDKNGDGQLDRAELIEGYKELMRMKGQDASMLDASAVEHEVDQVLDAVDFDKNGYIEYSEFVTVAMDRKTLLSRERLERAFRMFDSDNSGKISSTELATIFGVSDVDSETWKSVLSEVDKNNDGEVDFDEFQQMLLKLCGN
Test: Inhibition Assay
Protocol: Certain of the compounds prepared as described above were assayed to determine their IC50 for inhibition of T. gondii CDPK1 (tgCDPK1). At least three independent replicates of the assay were conducted for each compound tested.

SMILES | IC50 [µM]
N#Cc1cccc(Oc2nn([C@H]3C[C@H](F)C3)c3ncnc(N)c23)c1 [US11518761, Example 173] | 0.0498
N#Cc1cccc(Oc2nn([C@H]3C[C@H](O)C3)c3ncnc(N)c23)c1 [US11518761, Example 178] | 0.0796
